Results taken from PubChem BioAssay AID330 (DTP/NCI, 2004).
Values joined by “and” are separate entries in the source; they are usually repeats but may differ in a detail not shown here. Equal entries are not always repeated. Inconclusive results and toxic doses are left out.

System: P388 leukemia ip, CD2F1 mice, survival T/C
Assay: NCI In Vivo Anticancer Drug Screen. Data for tumor model P388 Leukemia (intraperitoneal) in CD2F1 (CDF1) mice
Settings: endpoint: median survival time, higher = longer survival
How it was run: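 Mice carrying the transplanted tumor received test compound or vehicle. Survival was recorded in each group, and the value is the treated-group measurement divided by that of the vehicle-treated control group.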

[1] = dose: 50.0 mg/kg/injection, schedule: Q01DX009 (ip), vehicle: saline with Tween-80
[2] = dose: 100.0 mg/kg/injection, schedule: Q01DX009 (ip), vehicle: saline with Tween-80
[3] = dose: 60.0 mg/kg/injection, schedule: Q01DX005 (ip), vehicle: Klucel (hydroxypropylcellulose) (HPC)
[4] = dose: 120.0 mg/kg/injection, schedule: Q01DX005 (ip), vehicle: Klucel (hydroxypropylcellulose) (HPC)
[5] = dose: 240.0 mg/kg/injection, schedule: Q01DX005 (ip), vehicle: Klucel (hydroxypropylcellulose) (HPC)
[6] = dose: 60.0 mg/kg/injection, schedule: Q01DX005 (ip), vehicle: saline with Tween-80
[7] = dose: 120.0 mg/kg/injection, schedule: Q01DX005 (ip), vehicle: saline with Tween-80
[8] = dose: 240.0 mg/kg/injection, schedule: Q01DX005 (ip), vehicle: saline with Tween-80

Q: How did the T/C (dose: 3.13 mg/kg/injection, schedule: Q01DX009 (ip), vehicle: saline with Tween-80) turn out when `CCCCCCCC[N+](C)(C)CCSCC[N+](C)(C)CCCCCCCC` was run?
A: Its T/C is 99 % of control.

Q: What about the T/C (dose: 6.25 mg/kg/injection, schedule: Q01DX009 (ip), vehicle: saline with Tween-80) of the same compound?
A: The T/C was 96 % of control.

Q: What about the T/C (dose: 12.5 mg/kg/injection, schedule: Q01DX009 (ip), vehicle: saline with Tween-80) of the same compound?
A: Its T/C is 114 % of control.

Q: `CN(C(=O)c1cc2c(cc1Br)OCO2)c1ccccc1` was tested. Which T/C (dose: 25.0 mg/kg/injection, schedule: Q01DX009 (ip), vehicle: other) did it give?
A: The T/C was 100 % of control.

Q: What about the T/C (dose: 50.0 mg/kg/injection, schedule: Q01DX009 (ip), vehicle: other) of the same compound?
A: The T/C was 98 % of control.

Q: And the T/C (dose: 100.0 mg/kg/injection, schedule: Q01DX009 (ip), vehicle: other)?
A: The T/C was 111 % of control.

Q: Which T/C [1] does the source give for `COc1cc(N=Nc2ccc([N+](=O)[O-])cc2)ccc1N(CCCl)CCCl` here?
A: Its T/C is 151 % of control.

Q: And the T/C [2]?
A: Its T/C is 153 % of control and 156 % of control.

Q: What about the T/C (dose: 200.0 mg/kg/injection, schedule: Q01DX009 (ip), vehicle: saline with Tween-80) of the same compound?
A: Its T/C is 168 % of control and 201 % of control.

Q: How did the T/C (dose: 30.0 mg/kg/injection, schedule: Q01DX005 (ip), vehicle: Klucel (hydroxypropylcellulose) (HPC)) turn out when `O=S(=O)(c1ccc(Cl)cc1)N(CCCCCN(S(=O)(=O)c1ccc(Cl)cc1)S(=O)(=O)c1ccc(Cl)cc1)S(=O)(=O)c1ccc(Cl)cc1` was run?
A: Its T/C is 94 % of control.

Q: What about the T/C [3] of the same compound?
A: The T/C was 105 % of control.

Q: And the T/C [4]?
A: The T/C was 96 % of control.

Q: And the T/C [5]?
A: Its T/C is 93 % of control.

Q: How did the T/C [6] turn out when `S=C1NCN(CC2CC2)CN1` was run?
A: The T/C was 97 % of control.

Q: And the T/C [7]?
A: The T/C was 96 % of control.

Q: What about the T/C [8] of the same compound?
A: Its T/C is 94 % of control.

Q: Which T/C (dose: 1.88 mg/kg/injection, schedule: Q01DX005 (ip), vehicle: saline with Tween-80) does the source give for `c1ccc2cc(OCC3CO3)c(OCC3CO3)cc2c1` (stereo not drawn) here?
A: The T/C was 100 % of control.

Q: And the T/C (dose: 3.75 mg/kg/injection, schedule: Q01DX005 (ip), vehicle: saline with Tween-80)?
A: The T/C was 107 % of control.

Q: And the T/C (dose: 7.5 mg/kg/injection, schedule: Q01DX005 (ip), vehicle: saline with Tween-80)?
A: The T/C was 116 % of control.

Q: And the T/C (dose: 15.0 mg/kg/injection, schedule: Q01DX005 (ip), vehicle: saline with Tween-80)?
A: Its T/C is 122 % of control.

Q: And the T/C [7]?
A: The T/C was 151 % of control.

Q: How did the T/C (dose: 25.0 mg/kg/injection, schedule: Q01DX009 (ip), vehicle: saline with Tween-80) turn out when `O=C(/C=C\c1ccc(NCc2ccc(C(=O)O)cc2)cc1)CCl` was run?
A: The T/C was 122 % of control.

Q: And the T/C (dose: 25.0 mg/kg/injection, schedule: Q04DX003 (ip), vehicle: saline with Tween-80)?
A: Its T/C is 100 % of control.

Q: What about the T/C [1] of the same compound?
A: The T/C was 122 % of control.

Q: What about the T/C (dose: 50.0 mg/kg/injection, schedule: Q04DX003 (ip), vehicle: saline with Tween-80) of the same compound?
A: The T/C was 104 % of control.

Q: What about the T/C (dose: 100.0 mg/kg/injection, schedule: Q04DX003 (ip), vehicle: saline with Tween-80) of the same compound?
A: The T/C was 109 % of control.

Q: Which T/C (dose: 12.5 mg/kg/injection, schedule: Q04DX002 (ip), vehicle: saline) does the source give for `OC1CC2c3ccccc3C1C1CCCCN21` (stereo not drawn) here?
A: The T/C was 106 % of control.

Q: And the T/C (dose: 25.0 mg/kg/injection, schedule: Q04DX002 (ip), vehicle: saline)?
A: The T/C was 109 % of control.

Q: What about the T/C (dose: 50.0 mg/kg/injection, schedule: Q04DX002 (ip), vehicle: saline) of the same compound?
A: Its T/C is 106 % of control.

Q: Which T/C [1] does the source give for `O=C(c1ccco1)C(O)NC(=S)c1ccc(Cl)cc1` (stereo not drawn) here?
A: Its T/C is 113 % of control and 117 % of control.

Q: What about the T/C [2] of the same compound?
A: Its T/C is 116 % of control.

Q: Which results are given for `O=C1CC(O)(c2ccc(-c3ccccc3)cc2)CS1` (stereo not drawn)?
A: T/C (dose: 100.0 mg/kg/injection, schedule: Q04DX003 (ip), vehicle: Klucel (hydroxypropylcellulose) (HPC)): 101 % of control; T/C (dose: 200.0 mg/kg/injection, schedule: Q04DX003 (ip), vehicle: Klucel (hydroxypropylcellulose) (HPC)): 99 % of control; T/C (dose: 400.0 mg/kg/injection, schedule: Q04DX003 (ip), vehicle: Klucel (hydroxypropylcellulose) (HPC)): 92 % of control

Q: For `Nc1ccc(S(=O)(=O)Nc2c(N)nc(SCC(=O)O)[nH]c2=O)cc1`, which T/C [3] is on record?
A: Its T/C is 92 % of control.

Q: What about the T/C [4] of the same compound?
A: Its T/C is 96 % of control.

Q: What about the T/C [5] of the same compound?
A: Its T/C is 92 % of control.

Q: Which T/C [6] does the source give for `O=C1C=C2c3ccccc3CC(C(=O)O)C2CC1` (stereo not drawn) here?
A: Its T/C is 100 % of control.

Q: And the T/C [7]?
A: Its T/C is 100 % of control.

Q: What about the T/C [8] of the same compound?
A: The T/C was 102 % of control.

Q: How did the T/C (dose: 60.0 mg/kg/injection, schedule: Q01DX005 (ip), vehicle: saline) turn out when `CCc1cc(-c2cc(CC)on2)no1` was run?
A: The T/C was 103 % of control.

Q: What about the T/C (dose: 120.0 mg/kg/injection, schedule: Q01DX005 (ip), vehicle: saline) of the same compound?
A: Its T/C is 100 % of control.

Q: And the T/C (dose: 240.0 mg/kg/injection, schedule: Q01DX005 (ip), vehicle: saline)?
A: The T/C was 91 % of control.
